Measured values reported in patent US11628172B2, “Methods of treating chronic lymphocytic leukemia using 2-(2,6-dioxopiperidin-3-yl)-4-((2-fluoro-4-((3-morpholinoazetidin-1-yl)methyl)benzyl)amino)isoindoline-1,3-dione” (Celgene Corporation, priority 2019, dated 2023).
Read-outs that look alike come from different tables or passages of the source.

Columns and labels:
[1] = test system: CI CLL cell line; experiment: Cell proliferation and viability assay (384-well flow cytometry, Annexin V/DRAQ7), CI; format: cell-based; conditions: 120 hours
Protocol: (§1) The following are examples of cell-based assays that can be used to determine the anti-proliferative activity and apoptotic effect of compounds described herein using exemplary CLL cell lines (Table 3). The in vitro growth inhibitory activity of Compound 1 described herein was evaluated using a 384-well flow cytometry assay.
(§2) The cell lines were plated under the conditions shown in Table 3 in 384-well flat bottom plates and incubated with increasing concentrations of compound ranging from 0.00015 to 10 μM or dimethyl sulfoxide (DMSO) control. The final concentration of DMSO was 0.1% (v/v). Following the addition of Compound 1 or DMSO and incubation for 120 hours, cell number and cell death were analyzed by flow cytometry (Attune®, Thermo Fisher) using Annexin V and the live-cell impermeant DNA dye, DRAQ7. […]
(§3) Flow cytometry data analysis was then performed using the Flow Jo_v10 software to determine the number of viable cells (Annexin V and DRAQ7 double negative staining cells) and percentage of apoptotic cells (Annexin V positive cells) for each condition. […] The IC50 (50% inhibitory concentration) and Emax (maximum efficacy achieved) values were then calculated by performing nonlinear regression curve fitting using log (inhibitor) vs. normalized response—variable slope analysis on GraphPad Prism 7.03. […]

[2] = test system: PGA1 CLL cell line; experiment: Cell proliferation and viability assay (384-well flow cytometry, Annexin V/DRAQ7), PGA1; format: cell-based; conditions: 120 hours
Protocol: as §1, §2, §3

[3] = test system: primary CLL cells from patient-derived blood; experiment: Cell proliferation and viability assay for B-cell CLL patient cells (ex vivo co-culture with CD154-expressing fibroblasts); format: cell-based, human; parameters: AUC: unit not given here; conditions: for Emax / IC50: Homo sapiens, CLL cell; for Emax: read-out: Emax (percentage of tumor cells remaining); for AUC: viable cell counts
Protocol: The following are examples of cell-based assays that can be used to determine the anti-proliferative activity and apoptosis effect of compounds described herein using exemplary CLL patient cells. The effect of Compound 1 on the viability and apoptosis of CLL B cells was assessed utilizing an ex vivo model.
CLL is characterized by accumulation of clonal CD5^+CD19^+ lymphocytes resistant to apoptosis. The effect of Compound 1 on the viability and apoptosis of CLL B cells was assessed utilizing an ex vivo model where primary CLL cells from patient-derived blood were stimulated with 10% fetal bovine serum (FBS), 5 ng/mL recombinant human interleukin-4 (rh IL-4), 10 ng/mL recombinant human interleukin-10 (rh IL-10) and co-cultured with fibroblast expressing surface CD154 (CD40L). The percentage of cells staining with Annexin V and/or DRAQ-7 was measured by flow cytometry assay after 3, 6 or 10 days of incubation with vehicle control or with increasing concentrations of Compound 1 ranging from 0.001 to 1 μM. Peripheral blood mononuclear cells (PBMCs) from CLL patients (Table 5) containing 70%-95% of CD5^+CD19^+ tumor cells were cultured on a monolayer of CD154-expressing fibroblasts in 24-well plates at a density of patient cells of 0.8×10^6 cells/well in RPMI 1640 medium supplemented with 10% FBS, 5 ng/mL rh IL-4 and 10 ng/mL rh IL-10 and were treated with vehicle control (0.1% DMSO) or increasing concentrations of Compound 1 ranging from 0.001 to 1 μM. After treatment, flow cytometric analysis was used to determine the number of cells that were viable or apoptotic.
After 3, 6 or 10 days of compound treatment, cells were incubated with Annexin V to capture the externalization of phosphatidylserine as a result of disturbed lipid asymmetry in the plasma membrane of cells, a well-characterized event in apoptosis, and the vital far-red fluorescent DNA dye DRAQ-7, that only stains the nuclei of dead and permeabilized cells, and analyzed by flow cytometry (Attune®, Thermo Fisher). Analysis was then performed to determine the percentage of viable live cells (Annexin V and DRAQ-7 double negative staining cells) using FlowJo_V10 and graphed with GraphPad Prism 7.03 software. The live cell count for every condition was normalized to the DMSO control (considered as 100% viable cells) to calculate the percentage of viable cells remaining after treatment. The IC50 (50% inhibitory concentration) and Emax (maximum efficacy eliminating tumor cells achieved) values were then calculated by performing nonlinear regression curve fitting using log(inhibitor) vs. normalized response—variable slope analysis on GraphPad Prism 7.03. Area under the curve (AUC) value of the viable cell counts over time was calculated by performing area under curve analysis on GraphPad Prism 7.03 (Table 6).

[4] = test system: WA-OSEL CLL cell line; experiment: Cell proliferation and viability assay (384-well flow cytometry, Annexin V/DRAQ7), WA-OSEL; format: cell-based; conditions: 120 hours
Protocol: as §1, §2, §3

[5] = test system: WA-C3-CD5+ CLL cell line; experiment: Cell proliferation and viability assay (384-well flow cytometry, Annexin V/DRAQ7), WA-C3-CD5+; format: cell-based; conditions: 120 hours
Protocol: as §1, §2, §3

[6] = test system: HG3 CLL cell line; experiment: Cell proliferation and viability assay (384-well flow cytometry, Annexin V/DRAQ7), HG3; format: cell-based; conditions: 120 hours
Protocol: as §1, §2, §3

[7] = test system: Mec1 CLL cell line; experiment: Cell proliferation and viability assay (384-well flow cytometry, Annexin V/DRAQ7), Mec1; format: cell-based; conditions: 120 hours
Protocol: as §1, §2, §3

[8] = test system: I83-E95 CLL cell line; experiment: Cell proliferation and viability assay (384-well flow cytometry, Annexin V/DRAQ7), I83-E95; format: cell-based; conditions: 120 hours
Protocol: as §1, §2, §3

[9] = test system: Mec2 CLL cell line; experiment: Cell proliferation and viability assay (384-well flow cytometry, Annexin V/DRAQ7), Mec2; format: cell-based; conditions: 120 hours
Protocol: as §1, §2, §3

[10] = Pt10, ex vivo CLL patient cells

O=C1CC[C@H](N2C(=O)c3cccc(NCc4ccc(CN5CC(N6CCOCC6)C5)cc4F)c3C2=O)C(=O)N1 [Compound 1, (S)-2-(2,6-dioxopiperidin-3-yl)-4-((2-fluoro-4-((3-morpholinoazetidin-1-yl)methyl)benzyl)amino)isoindoline-1,3-dione]
% Viable Cells Emax (percentage of tumor cells remaining) [1]: 53.58%
% Viable Cells Emax (percentage of tumor cells remaining) [2]: 69.21%
Emax ([3]; Pt1, ex vivo CLL patient cells): 4.62%
IC50 ([3]; Pt2, ex vivo CLL patient cells, 0.001 to 1 μM, viable cells normalized to DMSO, read-out: IC50): 1.05 nM
Emax ([3]; Pt2, ex vivo CLL patient cells): 30.6%
IC50 ([3]; Pt3, ex vivo CLL patient cells, 0.001 to 1 μM, viable cells normalized to DMSO, read-out: IC50): 0.723 nM
Emax ([3]; Pt3, ex vivo CLL patient cells): 13%
Emax ([3]; Pt4, ex vivo CLL patient cells): 6.5%
IC50 ([3]; Pt5, ex vivo CLL patient cells, 0.001 to 1 μM, viable cells normalized to DMSO, read-out: IC50): 0.305 nM
Emax ([3]; Pt5, ex vivo CLL patient cells): 22.8%
IC50 ([3]; Pt6, ex vivo CLL patient cells, 0.001 to 1 μM, viable cells normalized to DMSO, read-out: IC50): 2.75 nM
Emax ([3]; Pt6, ex vivo CLL patient cells): 27.4%
IC50 ([3]; Pt7, ex vivo CLL patient cells, 0.001 to 1 μM, viable cells normalized to DMSO, read-out: IC50): 0.036 nM
Emax ([3]; Pt7, ex vivo CLL patient cells): 5.87%
IC50 ([3]; Pt8, ex vivo CLL patient cells, 0.001 to 1 μM, viable cells normalized to DMSO, read-out: IC50): 0.209 nM
Emax ([3]; Pt8, ex vivo CLL patient cells): 4.82%
IC50 ([3]; Pt9, ex vivo CLL patient cells, 0.001 to 1 μM, viable cells normalized to DMSO, read-out: IC50): 0.0652 nM
Emax ([3]; Pt9, ex vivo CLL patient cells): 4.14%
IC50 ([3]; Pt10, ex vivo CLL patient cells, 0.001 to 1 μM, viable cells normalized to DMSO, read-out: IC50): 0.129 nM
Emax [3, 10]: 10.2%
IC50 ([3]; all CLL patient samples evaluated, read-out: concentrations that led to 50% inhibition of growth (IC50)): 0.1 to 3 nM
AUC ([3]; Pt1, ex vivo CLL patient cells): 32.79
AUC ([3]; Pt2, ex vivo CLL patient cells): 181.6
AUC ([3]; Pt3, ex vivo CLL patient cells): 106.1
AUC ([3]; Pt4, ex vivo CLL patient cells): 44.01
AUC ([3]; Pt5, ex vivo CLL patient cells): 139.6
AUC ([3]; Pt6, ex vivo CLL patient cells): 154.9
AUC ([3]; Pt7, ex vivo CLL patient cells): 44.86
AUC ([3]; Pt8, ex vivo CLL patient cells): 75.03
AUC ([3]; Pt9, ex vivo CLL patient cells): 48.14
AUC [3, 10]: 57.87
% Viable Cells Emax (percentage of tumor cells remaining) [4]: 54.42%
% Viable Cells Emax (percentage of tumor cells remaining) [5]: 44.2%
% Viable Cells Emax (percentage of tumor cells remaining) [6]: 59.58%
% Viable Cells Emax (percentage of tumor cells remaining) [7]: 83.45%
% Viable Cells Emax (percentage of tumor cells remaining) [8]: 21.6%
% Viable Cells Emax (percentage of tumor cells remaining) [9]: 25.55%
